The text below walks through data of US20240116857A1 (St. Louis University, priority 2022, published 2024).

Values after ≈ are worked out from the molar mass of the structure shown.

In the first test the test system is E. coli BW25113. Nature of the test: MIC, 2-fold broth dilution, E. coli BW25113. In kind it is cell-based, Escherichia coli. The following applies: Escherichia coli, BW25113, read-out: MIC, μM >50.
In the case of `CN(C)c1ccc(NC(=O)c2ccc(-c3ccc(C(=O)Nc4ccc(N(C)C)c([N+](=O)[O-])c4)cc3)cc2)cc1[N+](=O)[O-]` [Example 141], the minimum inhibitory concentration (MIC) is more than 50 µM.

Staying with this test, now noted: Escherichia coli; E. coli BW25113; asterisk in column 1-10; read-out: MIC, μM 1-10.
For the compound `C[N+](C)(C)c1ccc(NC(=O)c2ccc(-c3ccc(C(=O)Nc4ccc([N+]5(C)CCCCC5)cc4)cc3)cc2)cc1F` [Example 129], the MIC fell in the range of 1 to 10 µM.
Turning to `COc1cc(NC(=O)c2ccc(-c3ccc(C(=O)Nc4ccc([N+](C)(C)C)c(F)c4)cc3)cc2)ccc1[N+](C)(C)C` [Example 98, 2-fluoro-4-(4′-((3-methoxy-4-(trimethylammonio)phenyl)carbamoyl)-[1,1′-biphenyl]-4-carboxamido)-N,N,N-trimethylbenzenaminium], the minimum inhibitory concentration (MIC) was 1 to 10 µM.
Take `CN(C)c1ccc(NC(=O)c2ccc(-c3ccc(C(=O)Nc4ccc(N5CCCCC5)c(F)c4)cc3)cc2)cc1F` [Example 143]: the MIC is 1 to 10 µM (≈ 0.555 to 5.55 µg/mL).
On the same count and under the same terms, under `C[n+]1ccc(Nc2ccc(NC(=O)c3ccc(Cc4ccc(C(=O)Nc5ccc(Nc6cc[n+](C)cc6)cc5)cc4)cc3)cc2)cc1` [Example 52, 4,4′-((((4,4′-methylenebis(benzoyl))bis(azanediyl))bis(4,1-phenylene))bis(azanediyl))bis(1-methylpyridin-1-ium)] stands 1 to 10 µM.
Same read-out and setting: under `C#CC[N+](C)(C)c1ccc(NC(=O)c2ccc(-c3ccc(C(=O)Nc4ccc([N+](C)(C)C)c(F)c4)cc3)cc2)cc1F` [Example 94, 4-(4′-((4-(dimethyl(prop-2-yn-1-yl)ammonio)-3-fluorophenyl)carbamoyl)-[1,1′-biphenyl]-4-carboxamido)-2-fluoro-N,N,N-trimethylbenzenaminium] stands 1 to 10 µM.
Take `C#CCCCCCCCCOc1cc(NC(=O)c2ccc(-c3ccc(C(=O)Nc4ccc([N+](C)(C)C)c(F)c4)cc3)cc2)ccc1[N+](C)(C)C` [Example 116]: the minimum inhibitory concentration (MIC) lay in the range of 1 to 10 µM.
On to `C[N+](C)(C)c1ccc(NC(=O)c2ccc(-c3ccc(C(=O)Nc4ccc([N+](C)(C)C)c(N)c4)cc3C#N)cc2)cc1` [Example 153], for which the MIC lay in the range of 1 to 10 µM.

Staying with this test, now noted: Escherichia coli; E. coli BW25113; asterisk in column 10-50; read-out: MIC, μM 10-50.
In the case of `C[n+]1ccc(NC(=O)c2ccc(-c3ccc(C(=O)Nc4cc[n+](C)cc4)cc3)cc2)cc1` [Example 8], the minimum inhibitory concentration (MIC) was 10 to 50 µM.
Turning to `Cc1cc(NC(=O)c2ccc(-c3ccc(C(=O)Nc4cc[n+](C)c(C)c4)cc3)cc2)cc[n+]1C` [Example 29, 4,4′-(([1,1′-biphenyl]-4,4′-dicarbonyl)bis(azanediyl))bis(1,2-dimethylpyridin-1-ium)], the MIC fell in the range of 10 to 50 µM.
The same measure, in the same setting: under `Cc1c[n+](C)ccc1NC(=O)c1ccc(C(=O)Nc2ccc(Nc3cc[n+](C)cc3)cc2)cc1` [Example 55, 1,3-dimethyl-4-(4-((4-((1-methylpyridin-1-ium-4-yl)amino)phenyl)carbamoyl)benzamido)pyridin-1-ium] stands 10 to 50 µM.

Staying with this test, now noted: Escherichia coli; E. coli BW25113; asterisk in column >50; read-out: MIC, μM >50.
Regarding `O=C(Nc1ccc(Nc2ccncc2)cc1)c1ccc2cc(C(=O)Nc3ccc(Nc4ccncc4)cc3)ccc2c1` [Example 21, N^2,N^6-bis(4-(pyridin-4-ylamino)phenyl)naphthalene-2,6-dicarboxamide], the MIC was more than 50 µM.
In the case of `CN(C)c1ccc(NC(=O)c2ccc(-c3ccc(C(=O)Nc4ccc(N(C)C)c(F)c4)cc3)cc2)cc1F` [Example 75, N^4,N^4′-bis(4-(dimethylamino)-3-fluorophenyl)-[1,1′-biphenyl]-4,4′-dicarboxamide], the MIC was more than 50 µM.
As to `C[N+](C)(C)c1ccc(CNC(=O)c2ccc(-c3ccc(C(=O)NCc4ccc([N+](C)(C)C)cc4)cc3)cc2)cc1` [Example 102, 4,4′-((([1,1′-biphenyl]-4,4′-dicarbonyl)bis(azanediyl))bis(methylene))bis(N,N,N-trimethylbenzenaminium)], the minimum inhibitory concentration (MIC) was more than 50 µM.
With `O=C(Nc1ccc(Nc2ccncc2)cc1)c1ccc(C(=O)Nc2ccc(Nc3ccncc3)cc2)nc1` [Example 79, N^2,N^5-bis(4-(pyridin-4-ylamino)phenyl)pyridine-2,5-dicarboxamide], the minimal inhibitory concentration (MIC) is more than 50 µM.
As to `CN(C)c1ccc(NS(=O)(=O)c2ccc(-c3ccc(S(=O)(=O)Nc4ccc(N(C)C)cc4)cc3)cc2)cc1` [Example 70, N^4, N^4′-bis(4-(dimethylamino)phenyl)-[1,1′-biphenyl]-4,4′-disulfonamide], the minimum inhibitory concentration (MIC) is more than 50 µM.
On to `C[N+](C)(C)c1ccc(NC(=O)c2ccc(-c3ccc(C(=O)Nc4ccc([N+](C)(C)C)c(OCCCCCCCCc5cn(CCOCCOCCONC(=O)CCCC[C@@H]6SC[C@@H]7NC(=O)N[C@@H]76)nn5)c4)cc3)cc2)cc1F` [Example 135], for which the minimum inhibitory concentration (MIC) is more than 50 µM.
In the case of `CN(C)c1ccc(NC(=O)c2ccc(-c3ccc(C(=O)Nc4ccc(N5CCCCC5)cc4)cc3)cc2)cc1F` [Example 111], the MIC was more than 50 µM.
Take `C#CCCCCOc1cc(NC(=O)c2ccc(-c3ccc(C(=O)Nc4ccc(N(C)C)c(F)c4)cc3)cc2)ccc1N(C)C` [Example 95, N^4-(4-(dimethylamino)-3-(hex-5-yn-1-yloxy)phenyl)-N^4′-(4-(dimethylamino)-3-fluorophenyl)-[1,1′-biphenyl]-4,4′-dicarboxamide]: the MIC was more than 50 µM.
As for `C[n+]1ccccc1Nc1ccc(NC(=O)c2ccc(C(=O)Nc3ccc(Nc4cccc[n+]4C)cc3)cc2)cc1` [Example 14, 2,2′-(((terephthaloylbis(azanediyl))bis(4,1-phenylene))bis(azanediyl))bis(1-methylpyridin-1-ium)], the MIC was more than 50 µM.
Take `CN(C)c1ccc(NC(=O)c2ccc(-c3ccc(C(=O)Nc4ccc(N(C)C)cc4)cc3)cc2)cc1` [Example 22, N^4,N^4′-bis(4-(dimethylamino)phenyl)-[1,1′-biphenyl]-4,4′-dicarboxamide]: the MIC was more than 50 µM.
Consider `C#CCCCOc1cc(NC(=O)c2ccc(-c3ccc(C(=O)Nc4ccc([N+](C)(C)C)c(F)c4)cc3)cc2)ccc1[N+](C)(C)C` [Example 122], for which the minimum inhibitory concentration (MIC) was more than 50 µM.
In the case of `O=C(Nc1ccc(Oc2ccncc2)cc1)c1ccc(C(=O)Nc2ccc(Oc3ccncc3)cc2)c([N+](=O)[O-])c1` [Example 83, 2-nitro-N^1,N^4-bis(4-(pyridin-4-yloxy)phenyl)terephthalamide], the minimal inhibitory concentration (MIC) was more than 50 µM.
On the same count and under the same terms, under `C[N+](C)(C)c1ccc(NC(=O)c2ccc(-c3ccc(C(=O)Nc4ccc([N+](C)(C)CCCc5cn(CCOCCOCCOCCNC(=O)CCCC[C@@H]6SC[C@@H]7NC(=O)N[C@@H]76)nn5)c(F)c4)cc3)cc2)cc1F` [Example 133] stands more than 50 µM; under `C[N+](C)(C)c1ccc(NC(=O)c2ccc(-c3ccc(C(=O)Nc4ccc([N+](C)(C)C)c(OCCCCc5cn(CCOCCOCCOCCNC(=O)CCCC[C@@H]6SC[C@@H]7NC(=O)N[C@@H]76)nn5)c4)cc3)cc2)cc1F` [Example 136], more than 50 µM; under `C[n+]1ccc(-c2ccc(NC(=O)c3ccc(-c4ccc(C(=O)Nc5ccc(-c6cc[n+](C)cc6)cc5)cc4)cc3)cc2)cc1` [Example 59, 4,4′-((([1,1′-biphenyl]-4,4′-dicarbonyl)bis(azanediyl))bis(4,1-phenylene))bis(1-methylpyridin-1-ium)], more than 50 µM.
Consider `CN(C)c1ccc(NC(=O)c2ccc(-c3ccc(C(=O)Nc4ccc(N(C)C)c(F)c4)cc3)cc2)cc1` [Example 112], for which the minimum inhibitory concentration (MIC) was more than 50 µM.
`C#CCN(C)c1ccc(NC(=O)c2ccc(-c3ccc(C(=O)Nc4ccc([N+](C)(C)C)c(F)c4)cc3)cc2)cc1F` [Example 104]: the MIC was more than 50 µM.
On to `C[N+](C)(C)c1ccc(NC(=O)c2ccnc(-c3cc(C(=O)Nc4ccc([N+](C)(C)C)cc4)ccn3)c2)cc1` [Example 78, 4,4′-(([2,2′-bipyridine]-4,4′-dicarbonyl)bis(azanediyl))bis(N,N,N-trimethylbenzenaminium)], for which the MIC was more than 50 µM.
In the case of `C#CCCN(C)c1ccc(NC(=O)c2ccc(-c3ccc(C(=O)Nc4ccc(N(C)C)c(F)c4)cc3)cc2)cc1F` [Example 139], the minimal inhibitory concentration (MIC) is more than 50 µM.
For `C[n+]1ccc(NC(=O)[C@H]2CC[C@H](C(=O)Nc3cc[n+](C)cc3)CC2)cc1` [Example 6, 4,4′-((E)-cyclohexanedicarbonylbis(azanediyl))bis(1-methylpyridin-1-ium)], the MIC is more than 50 µM.
In the case of `C[n+]1ccc(NC(=O)c2ccc3cc(C(=O)Nc4cc[n+](C)cc4)ccc3c2)cc1` [Example 4, 4,4′-((naphthalene-2,6-dicarbonyl)bis(azanediyl))bis(1-methylpyridin-1-ium)], the minimum inhibitory concentration (MIC) is more than 50 µM.
Same read-out and setting: under `C#CCCCOc1cc(NC(=O)c2ccc(-c3ccc(C(=O)Nc4ccc(N(C)C)c(F)c4)cc3)cc2)ccc1N(C)C` [Example 123] stands more than 50 µM; under `CN1CCC(Nc2ccc(NC(=O)c3ccc(C(=O)Nc4ccc(NC5CCN(C)CC5)cc4)cc3)cc2)CC1` [Example 50, N^1,N^4-bis(4-((1-methylpiperidin-4-yl)amino)phenyl)terephthalamide], more than 50 µM.
In the case of `O=C(Nc1ccc(Nc2ccncc2)cc1)c1ccc(C(=O)Nc2ccc(Nc3ccncc3)cc2)c(C(F)(F)F)c1` [Example 41, N^1,N^4-bis(4-(pyridin-4-ylamino)phenyl)-2-(trifluoromethyl)terephthalamide], the MIC is more than 50 µM.
Still for that read-out and setting: under `CN(C)c1ccc(NC(=O)c2ccc(Cc3ccc(C(=O)Nc4ccc(N(C)C)cc4)cc3)cc2)cc1` [Example 49, 4,4′-methylenebis(N-(4-(dimethylamino)phenyl)benzamide)] stands more than 50 µM.
`O=C(Nc1ccc(Nc2ccncc2)cc1)c1ccc(Cc2ccc(C(=O)Nc3ccc(Nc4ccncc4)cc3)cc2)cc1` [Example 48]: the minimal inhibitory concentration (MIC) is more than 50 µM.
For `O=C(Nc1ccc(Nc2ccncc2)cc1)c1ccc(-c2ccc(C(=O)Nc3ccc(Nc4ccncc4)cc3)cc2)cc1` [Example 16, N^4,N^4′-bis(4-(pyridin-4-ylamino)phenyl)-[1,1′-biphenyl]-4,4′-dicarboxamide], the MIC was more than 50 µM.
For `O=C(Nc1ccc(Nc2ccncc2)cc1)c1ccc(C(=O)Nc2ccc(Nc3ccncc3)cc2)c(Br)c1` [Example 68, 2-bromo-N^1,N^4-bis(4-(pyridin-4-ylamino)phenyl)terephthalamide], the MIC is more than 50 µM.
